Tests used:
[1] = target: T1, fatty acyl CoA:cholesterol acyl transferase (ACAT) (Rattus norvegicus, UniProt O70536); assay: In vitro inhibition of fatty acyl CoA:cholesterol acyl transferase (ACAT), rat adrenal supernatant; assay type: biochemical; settings: final concentration 5.2 μg./ml., pH 7.4, 37° C., oleoyl CoA (14C)
T1 construct: The supernatant, containing the microsomal fraction, served as the source of the cholesterol-esterifying enzyme; from tissue; host or cells: rat adrenals, homogenate, 1000 x g supernatant containing the microsomal fraction
T1 sequence (O70536 1-545): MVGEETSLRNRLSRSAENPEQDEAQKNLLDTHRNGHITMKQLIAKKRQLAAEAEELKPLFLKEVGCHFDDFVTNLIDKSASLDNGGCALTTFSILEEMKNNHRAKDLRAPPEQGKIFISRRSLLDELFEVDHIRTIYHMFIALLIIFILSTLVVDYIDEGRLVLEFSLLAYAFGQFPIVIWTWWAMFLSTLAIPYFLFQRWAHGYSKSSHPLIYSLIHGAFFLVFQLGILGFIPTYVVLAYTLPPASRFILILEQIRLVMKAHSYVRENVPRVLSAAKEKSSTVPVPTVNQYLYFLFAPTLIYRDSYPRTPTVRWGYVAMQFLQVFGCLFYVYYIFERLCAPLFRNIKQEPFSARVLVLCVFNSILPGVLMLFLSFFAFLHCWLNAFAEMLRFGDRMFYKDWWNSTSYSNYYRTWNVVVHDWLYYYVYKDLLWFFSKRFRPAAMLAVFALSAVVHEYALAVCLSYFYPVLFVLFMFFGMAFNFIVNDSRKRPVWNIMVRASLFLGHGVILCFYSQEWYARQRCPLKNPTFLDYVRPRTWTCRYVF
Experimental: The compounds were tested for their ability to inhibit ACAT according to the following procedure:
Rat adrenals were homogenized in 0.2 M monobasic potassium phosphate buffer, pH 7.4, and centrifuged at 1000 times gravity for 15 minutes at 5° C. The supernatant, containing the microsomal fraction, served as the source of the cholesterol-esterifying enzyme, fatty acyl CoA:cholesterol acyl transferase (ACAT). A mixture comprising 50 parts of adrenal supernatant, 10 parts of albumin (BSA) (50 mg./ml.), 3 parts of test compound (final concentration 5.2 μg./ml.) and 500 parts of buffer was preincubated at 37° C. for 10 minutes. After treatment with 20 parts of oleoyl CoA (^14 C--0.4 μCi) the mixture was incubated at 37° C. for 10 minutes. A control mixture, omitting the test compound, was prepared and treated in the same manner. The lipids from the incubation mixture were extracted into an organic solvent and separated by thin-layer chromatography. The cholesteryl ester fraction was counted in a scintillation counter.

Cholesterol absorption [2] = settings: po, 0.03 % of diet, 336 h
Experimental: Compounds were tested in vitro for their ability to inhibit the enzyme fatty acyl CoA:cholesterol acyl transferase (ACAT) and in vivo for serum hypolipidemic activity as measured by their ability to inhibit lipid absorption in rats.
Inhibition of Cholesterol absorption was determined by feeding male Sprague-Dawley rats, weighing 150-170 g., A 1% cholesterol:0.5% cholic acid diet for 2 weeks. The diet also contained compounds being tested at a dose of 0.03% of the diet. Control rats were fed the same diet without any compound. At the end of the test, the rats were sacrificed by decapitation. Blood is collected, centrifuged at 1.5 kg times gravity for 10 minutes at 4° C., and the serum is then analyzed for cholesterol and triglycerides enzymatically by the method of Trinder, P., Analyst, 77, 321 (1952) on a Centrifichem 400 Analyzer. Livers are removed, a 0.4 g sample is taken from the center of the large lobe, and the sample is subjected to saponification using 25% saturated potassium hydroxide in ethanol. The resulting neutral sterols are extracted with petroleum ether and extract analyzed for cholesterol. The effectiveness of the compound in inhibiting cholesterol absorption is measured by the lowering of either serum cholesterol or liver cholesterol relative the values for control rats.

Cholesterol absorption [3] = settings: po, 336 h
Experimental: Inhibition of cholesterol absorption was determined by feeding male Sprague-dawley rats weighing 150-170 g. a 1% cholesterol:0.5% cholic acid diet for 2 weeks. The diet also contained compounds being tested at doses of between 0.01% and 0.1% of the diet. […] Feces were collected for each 24 hour period for the remaining 5 days during which the rats were maintained on the 1% cholesterol:0.5% cholic acid plus test compound diet. Fecal ^14 C-neutral sterols were extracted with petroleum ether from saponified feces by the method of Grundy, S. M. et. al., J. Lipid Res., 6, 397 (1965) and counted in a scintillation counter. Acidic sterols (bile acids) were extracted by acidifying the saponified feces and extracting in chloroform:methanol (2:1) and counting the chloroform phase in a scintillation counter. Total extraction of radioactivity (98-100%) from saponified feces is realized by this procedure.
The effect of test compounds on cholesterol absorption was determined by:
1. increase in excreted ^14 C-neutral sterol
2. decrease in excreted ^14 C-acidic sterol
3. decrease in ^14 C-cholesterol or ^14 C-cholesteryl ester in the liver.
4. decrease in ^14 C-cholesterol or ^14 C-cholesteryl ester in the serum.

| inhibition at 5.2 µg/mL [1] | Compound | Result (inhibition of cholesterol absorption: lowering of serum or liver cholesterol relative to control) (Cholesterol absorption [2]) | Result (inhibition of cholesterol absorption, 14C-sterol excretion) (Cholesterol absorption [3]) |
| --- | --- | --- | --- |
| 88.1% | Cc1cccc(NC(=O)N(Cc2ccccc2)Cc2ccccc2)c1C [1,1-Dibenzyl-3-(2,3-dimethylphenyl)urea] | Active | Active |
| 36.9% | Cc1cc(C)c(NC(=O)N(Cc2ccccc2)Cc2ccccc2)c(C)c1 [1,1-Dibenzyl-3-(2,4,6-trimethylphenyl)urea] | Active | Active |
| 89.9% | Cc1ccc(NC(=O)N(Cc2ccccc2)Cc2ccccc2)c(C)c1 [1,1-Dibenzyl-3-(2,4-dimethylphenyl)urea] | Active | Active |
| 87.8% | COc1ccc(C)cc1NC(=O)N(Cc1ccccc1)Cc1ccccc1 [1,1-Dibenzyl-3-(2-methoxy-5-methylphenyl)urea] | Active | Active |
| 68.4% | O=C(Nc1ccccc1C(F)(F)F)N(Cc1ccccc1)Cc1ccccc1 [1,1-Dibenzyl-3-(2-trifluoromethylphenyl)urea] | Active | – |
| 71.8% | Cc1ccc(NC(=O)N(Cc2ccccc2)Cc2ccccc2)cc1C [1,1-Dibenzyl-3-(3,4-dimethylphenyl)urea] | Active | Active |
| 91.9% | O=C(Nc1cccc(Br)c1)N(Cc1ccccc1)Cc1ccccc1 [1,1-Dibenzyl-3-(3-bromophenyl)urea] | Active | – |
| 94.1% | Cc1ccc(NC(=S)N(Cc2ccccc2)Cc2ccccc2)cc1Cl [1,1-Dibenzyl-3-(3-chloro-4-methylphenyl)thiourea] | Active | – |
| 94% | Cc1ccc(NC(=O)N(Cc2ccccc2)Cc2ccccc2)cc1Cl [1,1-Dibenzyl-3-(3-chloro-4-methylphenyl)urea] | Active | Active |
| 71.2% | Cc1cccc(NC(=S)N(Cc2ccccc2)Cc2ccccc2)c1 [1,1-Dibenzyl-3-(3-methylphenyl)thiourea] | Active | – |
| 94.9% | CCOC(=O)c1ccc(NC(=O)N(Cc2ccccc2)Cc2ccccc2)cc1 [1,1-Dibenzyl-3-(4-carboethoxyphenyl)urea] | Active | – |
| 62.7% | Cc1cc(Cl)ccc1NC(=O)N(Cc1ccccc1)Cc1ccccc1 [1,1-Dibenzyl-3-(4-chloro-2-methylphenyl)urea] | Active | Active |
| 81.8% | O=C(Nc1ccc(Cl)cc1C(F)(F)F)N(Cc1ccccc1)Cc1ccccc1 [1,1-Dibenzyl-3-(4-chloro-2-trifluoromethylphenyl)urea] | Active | Active |
| 91.3% | CCCCc1ccc(NC(=O)N(Cc2ccccc2)Cc2ccccc2)cc1 [1,1-Dibenzyl-3-(4-n-butylphenyl)urea] | Active | – |
| 94.3% | O=C(Nc1ccc(Oc2ccccc2)cc1)N(Cc1ccccc1)Cc1ccccc1 [1,1-Dibenzyl-3-(4-phenoxyphenyl)urea] | Active | – |
| 71.3% | Cc1ccc(Cl)cc1NC(=O)N(Cc1ccccc1)Cc1ccccc1 [1,1-Dibenzyl-3-(5-chloro-2-methylphenyl)urea] | Active | Active |

Reference: patent US4387106A, “Method of treating atherosclerosis with di(aralkyl)ureas and di(aralkyl)thioureas” (American Cyanamid Company, priority 1982, dated 1983)
